Results on 1 substance are retold here after patent US4759929A, “Novel treatment” (Cabinet Harle & Phelip, priority 1987, dated 1988).

The subject of assay [1] is natural killer (NK) and killer cells (ADCC) function. As to conditions: cited from earlier work.
Another assay deals with encephalomyocarditis. The note with it: mice; cited from earlier work.
The test system of the next assay is scrapie. As to conditions: mice infected with scrapie; cited from earlier work.
The subject of a further assay is cell growth. Put plainly: Inhibition of cell growth. In kind it is cell-based.
Assay [2] concerns the target T1, LAV purified reverse transcriptase (Human immunodeficiency virus type 1 group M subtype B, UniProt P03367).
T1 construct: made in house
Put plainly: Reverse transcriptase assay, LAV purified RT. In kind it is biochemical, Lymphadenopathy associated virus (LAV). The note with it: for p. mole incorporated: control 0.11. The method, then:
LAV RT was purified. Briefly, 10^9 LAV infected cells were washed two times in PBS, resuspended in Tris 50 mM (pH 7.5) KCl 500 mM, ethylene diamine tetracetic acid (EDTA) 0.1 mM, dithiothreitol 1 mM and glycerol 10 percent, and frozen in liquid nitrogen. After incubation with Triton X100 0.01 percent at 37° C. (15 Min), cell homogenates were centrifuged at 100,000 g for one hour and the supernatant dialyzed six hours (KCl 100 mM). The dialyzate was chromatographed on a phosphocellulse column. RT and DNA polymerases were eluted from the column with a 0.1M to 1M KCl gradient.
Assay mixtures are indicated in the legend of Table I. The reaction was stopped by treating the mixtures with sodium pyrophosphate and trichloracetic acid. The results are given as picomoles of tritiated deoxyribonucleotides monophosphate incorporated into DNA after 1 hour at 37° C.
HPA 23 inhibition of reverse transcriptase of SAIDS virus and LAV.
Reaction mixture (50 μl) contains: Tris 50 mM pH 7.9, 5 mM MgCl2,
OD/ml Oligo dT 12-18, and 200 pM ^3 HTTP (25 Ci/mM).

Take “Ammonium-9-antimonio-III-21-tungsto-VII-sodate [HPA 23]”: in assay [1], the “effect on NK and ADCC function” value is “stimulating agent”. For the same substance, the “activity against lethal encephalomyocarditis infections” value in the assay on encephalomyocarditis is “some activity”. Moreover, the “disease / incubation period” value with scrapie was “can prevent disease or prolong the incubation period”. Further, the “dose required to inhibit the cell growth relative to the one blocking RT activity” value in the assay on cell growth was “twenty times higher”. The substance further gave an ID50 in assay [2] (1 hour at 37° C.) of 11 µg/mL. In addition, the Percent inhibition stood at 4.5% in assay [2] (inhibitor 0.5 μg/ml); 8.2% in assay [2] (inhibitor 1 μg/ml); 33.6% in assay [2] (inhibitor 5 μg/ml); 43.6% in assay [2] (inhibitor 10 μg/ml); 61.8% in assay [2] (inhibitor 20 μg/ml); 70.2% in assay [2] (inhibitor 30 μg/ml). In addition, the Percent inhibition in assay [2] (inhibitor 60 μg/ml) worked out at 94%; in assay [2] (inhibitor 100 μg/ml) it was 100%. Also, the p. mole incorporated in assay [2] (inhibitor 0.5 μg/ml) stood at 0.105 p. mole; in assay [2] (inhibitor 1 μg/ml), 0.101 p. mole; in assay [2] (inhibitor 5 μg/ml) it was 0.073 p. mole; in assay [2] (inhibitor 10 μg/ml) it was 0.062 p. mole; in assay [2] (inhibitor 20 μg/ml) it was 0.042 p. mole; in assay [2] (inhibitor 30 μg/ml), 0.032 p. mole. In addition, the p. mole incorporated is 0.007 p. mole in assay [2] (inhibitor 60 μg/ml) and 0 p. mole in assay [2] (inhibitor 100 μg/ml).
